{
  "source": "patent US20090075887A1",
  "about": "“Treatment with Kallikrein Inhibitors” (GENZYME CORPORATION, priority 2007, published 2009)",
  "target": "plasma kallikrein (Homo sapiens, UniProt P03952)",
  "sequence (P03952 20-638)": "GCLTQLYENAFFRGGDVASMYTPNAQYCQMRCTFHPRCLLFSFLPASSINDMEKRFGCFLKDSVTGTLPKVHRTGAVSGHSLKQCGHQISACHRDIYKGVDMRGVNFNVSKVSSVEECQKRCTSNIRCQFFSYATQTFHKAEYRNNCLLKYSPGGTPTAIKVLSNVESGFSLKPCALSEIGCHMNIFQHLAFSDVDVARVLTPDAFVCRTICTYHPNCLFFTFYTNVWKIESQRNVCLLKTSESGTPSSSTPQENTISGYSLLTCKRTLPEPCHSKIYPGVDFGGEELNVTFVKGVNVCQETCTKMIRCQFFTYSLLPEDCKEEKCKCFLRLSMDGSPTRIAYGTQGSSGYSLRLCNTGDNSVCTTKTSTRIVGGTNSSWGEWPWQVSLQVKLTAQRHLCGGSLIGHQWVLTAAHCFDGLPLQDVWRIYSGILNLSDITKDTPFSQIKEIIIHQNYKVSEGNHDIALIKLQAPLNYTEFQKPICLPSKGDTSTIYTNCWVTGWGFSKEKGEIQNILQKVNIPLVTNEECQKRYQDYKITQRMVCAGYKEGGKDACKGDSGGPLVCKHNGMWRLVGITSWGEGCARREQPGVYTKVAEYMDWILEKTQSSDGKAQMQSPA",
  "experiment": "Inhibition constant for plasma kallikrein",
  "format": "biochemical",
  "settings": "plasma kallikrein (PK); value used for the dose calculation",
  "note": "Bridges are numbered along the chain shown (N, C = ends). Where no end group is shown, it is not given here.",
  "data": [
    {"sequence": "EAMHSFCAFKADDGPCRAAHPRWFFNIFTRQCEEFIYGGCEGNQNRFESLEECKKMCTRD (disulfide 7-57, 16-40, 32-53) [DX88]", "values": [
      {"measurement": "Ki", "result": 0.044, "unit": "nM"}
    ]}
  ]
}
